Measured values as given in PMC12612990, “PNA5, a glycosylated angiotensin-(1−7) mas receptor agonist for vascular dementia: A two species toxicology and toxicokinetic study” (Toxicology Reports, 2025).
Peptide text beside a SMILES is read from it. * marks the point of attachment. βGlc = OC[C@H]1O[C@@H](*)[C@H](O)[C@@H](O)[C@@H]1O

Columns and labels:
[1] = Toxicokinetics of PNA5 in Sprague Dawley rat plasma; details: for AUC(0-t) / Cmax / half-life / Tmax: both, Sprague Dawley, rat, sc; for AUC(0-t) / Cmax / half-life / Tmax / Kel: plasma; for AUC(0-t): AUC0–2, rats, n = 6, linear trapezoidal; for AUC(0-t) / Cmax / half-life / Kel: mean ± SD; for Cmax: Sprague Dawley rats, n = 6, UHPLC-MS/MS, noncompartmental; for half-life: n = 6, Ln(2)/Kel; for AUC0–2hr averaged accumulation ratio: day 1 to day 28, sexes combined; for F:M AUC0–2hr ratio: printed as on day 1; for fold increase in AUC0–2hr for a 40-fold increase in dose / fold increase in Cmax for a 40-fold increase in dose: 1 to 40 mg/kg/day; for Kel: n = 6, exponential regression
Description: (§1) Toxicokinetic (TK) of PNA5 was obtained from plasma following a single and repeated subcutaneous injection administration of PNA5 once daily for 28 days. Blood samples were collected on days 1 and 28 at the following time points: pre-dose and at approximately 5, 15, 30, 60, and 120 min post-dose (equivalent to 0.083, 0.25, 0.5, 1, and 2 h).
(§2) For the rat study, a total of 6 rats for each sex were assigned randomly to treatment groups 2–4 (those treated with PNA5). Three rats per sex were assigned to group 1 (vehicle control). Rats were sampled in satellite groups; rats' blood was taken at alternating time points, resulting in a total n = 3 per time point for six animals. For the dog study, three animals per sex were assigned to group 2 and group 3, and five animals per sex were assigned to group 1 and group 4. Blood was collected from canines via venipuncture.
(§3) Blood was collected in heparinized tubes containing a protease inhibitor cocktail consisting of 4 mM 0-phenanthroline, 1.2 mM pepstatin A, and 0.5 M EDTA. Blood samples were centrifuged for 15 min at 2500 x g at room temperature. Plasma was transferred into pre-cooled, pre-labeled collection tubes, frozen immediately in liquid nitrogen/dry ice, and stored at −80 °C until analysis.
(§4) PNA5 levels were analyzed using ultra-high performance liquid chromatography (UHPLC) with tandem mass spectrometric (MS/MS) detection. Precision and accuracy, reproducibility, selectivity, carryover, recovery, matrix effects, dilution integrity, hemolysis, stock stability, and matrix stability were assessed prior to initiation of the validation. Samples (5 µL) were injected onto the column and separated using gradient elution. Target compounds were quantified by summing the height of previously identified fragment peaks in the LC-MS [3] spectra. The serum concentrations were estimated using a calibration curve, accounting for the dilution factors and the probe recoveries for each experiment. Standards were matrix-matched to samples and underwent the same sample preparation steps.
(§5) A noncompartmental analysis was used for parameter estimation. For PNA5 in plasma, the extravascular model was used for parameter estimation. For the rat study, all parameters were generated from PNA5 individual concentrations in plasma from days 1 and 28. Parameters were estimated using nominal dose levels and nominal sampling times relative to the dose administration. Plasma concentration values obtained at the pre-dose time point were used as the concentration at time 0 on days 1 and 28. For the dog study, all parameters were generated from PNA5 individual concentrations in plasma from days 1 and 28. Parameters were estimated using nominal dose levels and nominal sampling times relative to dose administration. Plasma concentration values obtained at the pre-dose time point were used as the concentration at time 0 on days 1 and 28. For Beagle dogs, concentration values reported as below the limit of quantitation (< 5 ng/mL) were assigned a value of 0.
(§6) The toxicokinetic parameters evaluated included the area under the curve of the plasma PNA5 concentration against time from time 0 (pre-dose) to 2 h (post-dose) (AUC0–2hr), the maximum plasma concentration (Cmax), time to maximum plasma concentration (Tmax), elimination rate (Kel), and the half-life. The area under the concentration vs. time curve was calculated using the linear trapezoidal method with linear interpolation for all profiles with at least three consecutive quantifiable concentrations. Kel was calculated from the slope using exponential regression of concentration versus time (Excel); exponential interpolations for all profiles include at least three concentrations plotted against time. Time 0 values and all concentrations listed as zero were excluded from Kel calculations. The half-life was calculated from Kel via the following equation: half-life Ln(2)/Kel.

male Sprague Dawley rats [2] = test: Neurobehavioral evaluations after a single subcutaneous dose in male Sprague Dawley rats; assay type: in vivo, rat; details: single s.c. dose 1, 5 or 40 mg/kg, n = 8 per group
Description: To evaluate the effects of PNA5 when administered subcutaneously on the central nervous system’s autonomic, neuromuscular, sensorimotor, and behavioral domains, neurobehavioral evaluations were performed in male Sprague Dawley rats treated with PNA5 at 0, 1, 5, or 40 mg/kg (n = 8 males per group). The neurobehavioral evaluations consisted of assessments of the central nervous system for activity, excitability, autonomic function, neuromuscular function, sensorimotor responses, and physiological function.

male Sprague Dawley rats [3] = test: Pulmonary safety parameters after a single subcutaneous dose in male Sprague Dawley rats; assay type: in vivo, rat; details: single s.c. dose 1, 5 or 40 mg/kg, n = 8 per group
Description: Respiratory rate, tidal volume, and calculated minute volume were measured in male Sprague Dawley rats to measure pulmonary safety parameters after a single subcutaneous dose of 0, 1, 5, or 40 mg/kg PNA5 (n = 8 males per group).

[4] = Toxicokinetics of PNA5 in Beagle dog plasma; details: both, Beagle, dog, plasma, sc, plasma; for AUC(0-t): AUC0–2, dogs, n = 6, linear trapezoidal; for AUC(0-t) / Cmax / half-life: mean ± SD; for Cmax: Beagle dogs, n = 6, UHPLC-MS/MS, noncompartmental; for half-life: n = 6, Ln(2)/Kel
Description: as §1, §2, §3, §4, §5, §6

[5] = 1 mg/kg/day, s.c. 1 mg/kg/day, day 1, sexes combined
[6] = 1 mg/kg/day, s.c. once daily 1 mg/kg/day, day 1, sexes combined
[7] = 1 mg/kg/day, s.c. once daily 1 mg/kg/day, day 28, sexes combined
[8] = 5 mg/kg/day, s.c. 5 mg/kg/day, day 1, sexes combined
[9] = 5 mg/kg/day, s.c. 5 mg/kg/day, day 28, sexes combined
[10] = 5 mg/kg/day, s.c. once daily 5 mg/kg/day, day 1, sexes combined
[11] = 5 mg/kg/day, s.c. once daily 5 mg/kg/day, day 28, sexes combined

`CC[C@H](C)[C@H](NC(=O)[C@H](Cc1ccc(O)cc1)NC(=O)[C@@H](NC(=O)[C@H](CCCNC(=N)N)NC(=O)[C@@H](N)CC(=O)O)C(C)C)C(=O)N[C@@H](Cc1c[nH]cn1)C(=O)N[C@@H](CO[C@@H]1O[C@H](CO)[C@@H](O)[C@H](O)[C@H]1O)C(N)=O` [PNA5, Ang-1–6-Ser-O-Glu-NH2] (H-DRVYIHS(βGlc)-NH2) gave an AUC(0-t) [1, 5] of 0.263 ± 0.0315 ng·h/mL, an AUC(0-t) ([1]; 1 mg/kg/day, s.c. 1 mg/kg/day, day 28, sexes combined) of 0.464 ± 0.0741 ng·h/mL and a Cmax [1, 6] of 0.591 ± 0.25 ng/mL. It also gave a Cmax [1, 7] of 0.968 ± 0.28 ng/mL, a half-life ([1]; 1 mg/kg/day, rats, s.c. 1 mg/kg/day, day 1, sexes combined) of 36 ± 6 min and a half-life ([1]; 1 mg/kg/day, rats, s.c. 1 mg/kg/day, day 28, sexes combined) of 30.6 ± 9 min. For the same compound, the Tmax ([1]; 1 mg/kg/day, rats, s.c. 1 mg/kg/day, day 1, sexes combined, average (range lowest to highest)) was 6.6 min, the Tmax ([1]; 1 mg/kg/day, rats, s.c. 1 mg/kg/day, day 28, sexes combined, average (range lowest to highest)) was 10.2 min and the AUC(0-t) [1, 8] was 1.55 ± 0.789 ng·h/mL. The AUC(0-t) [1, 9] was 2.86 ± 1.72 ng·h/mL, the Cmax [1, 10] was 3.37 ± 1.99 ng/mL and the Cmax [1, 11] was 5.35 ± 2.77 ng/mL. It also gave a half-life ([1]; 5 mg/kg/day, rats, s.c. 5 mg/kg/day, day 1, sexes combined) of 25.2 ± 7.8 min, a half-life ([1]; 5 mg/kg/day, rats, s.c. 5 mg/kg/day, day 28, sexes combined) of 22.2 ± 7.8 min and a Tmax ([1]; 5 mg/kg/day, rats, s.c. 5 mg/kg/day, day 1, sexes combined, average) of 4.98 min. The Tmax ([1]; 5 mg/kg/day, rats, s.c. 5 mg/kg/day, day 28, sexes combined, average (range lowest to highest)) was 11.4 min, the AUC(0-t) ([1]; 40 mg/kg/day, s.c. 40 mg/kg/day, day 1, sexes combined) was 16.1 ng·h/mL and the AUC(0-t) ([1]; 40 mg/kg/day, s.c. 40 mg/kg/day, day 28, sexes combined) was 29.6 ng·h/mL. For the same compound, the Cmax ([1]; 40 mg/kg/day, s.c. once daily 40 mg/kg/day, day 1, sexes combined) was 40.8 ng/mL, the Cmax ([1]; 40 mg/kg/day, s.c. once daily 40 mg/kg/day, day 28, sexes combined) was 62.5 ng/mL and the half-life ([1]; 40 mg/kg/day, rats, s.c. 40 mg/kg/day, day 1, sexes combined) was 19.8 ± 4.8 min. The half-life ([1]; 40 mg/kg/day, rats, s.c. 40 mg/kg/day, day 28, sexes combined) was 23.4 ± 3.6 min, the Tmax ([1]; 40 mg/kg/day, rats, s.c. 40 mg/kg/day, day 1, sexes combined, average (range lowest to highest)) was 8.4 min and the Tmax ([1]; 40 mg/kg/day, rats, s.c. 40 mg/kg/day, day 28, sexes combined, average (range lowest to highest)) was 10.2 min. The “AUC0–2hr averaged accumulation ratio” value ([1]; rats, 1 mg/kg/day) was 1.76, the “F:M AUC0–2hr ratio” value ([1]; rats, 5 mg/kg/day) was 0.66–1.58 and the “AUC0–2hr averaged accumulation ratio” value ([1]; rats, 40 mg/kg/day) was 1.84. The “F:M AUC0–2hr ratio” value ([1]; rats, 40 mg/kg/day) was 1.16–1.32, the “fold increase in AUC0–2hr for a 40-fold increase in dose” value ([1]; rats, day 1, sexes combined) was about 61.22 fold and the “fold increase in Cmax for a 40-fold increase in dose” value ([1]; rats, day 1, sexes combined) was about 69.09 fold. The “fold increase in AUC0–2hr for a 40-fold increase in dose” value ([1]; rats, day 28, sexes combined) was about 63.93 fold, the “fold increase in Cmax for a 40-fold increase in dose” value ([1]; rats, day 28, sexes combined) was about 64.56 fold and the “F:M Cmax ratios” value ([1]; rats, day 28, range across doses) was 1.24 – 1.37. For the same compound, the Kel ([1]; rats, s.c. 1 mg/kg/day, day 1, sexes combined) was 1.18 ± 0.18, 6 hr–1, the Kel ([1]; rats, s.c. 5 mg/kg/day, day 1, sexes combined) was 1.79 ± 0.67, 6 hr–1 and the Kel ([1]; rats, s.c. 5 mg/kg/day, day 28, sexes combined) was 2.08 ± 0.86, 6 hr–1. The Kel ([1]; rats, s.c. 40 mg/kg/day, day 1, sexes combined) was 2.24 ± 0.83, 6 hr–1, the Kel ([1]; rats, s.c. 40 mg/kg/day, day 28, sexes combined) was 1.82 ± 0.28, 6 hr–1 and the “time post-dose up to which PNA5 plasma concentrations were quantifiable” value ([1]; rats, s.c. 1, 5 or 40 mg/kg/day, day 1 and day 28, last sampling time 2 h) was “up to 2 h”. For the same compound, the “neurobehavioral assessments of the central nervous system (activity, excitability, autonomic, neuromuscular, sensorimotor, physiological function)” value (male Sprague Dawley rats [2]) was “nor were there observed PNA5-related effects”, the “respiratory rate, tidal volume and calculated minute volume” value (male Sprague Dawley rats [3]) was “no effect” and the AUC(0-t) [4, 5] was 63.5 ± 14.8 ng·h/mL. The Cmax [4, 6] was 110 ± 37.3 ng/mL, the Cmax [4, 7] was 146 ± 59.6 ng/mL and the half-life ([4]; 1 mg/kg/day, dogs, s.c. 1 mg/kg/day, day 1, sexes combined) was 17.4 ± 6 min. It also gave a half-life ([4]; 1 mg/kg/day, dogs, s.c. 1 mg/kg/day, day 28, sexes combined) of 15.6 ± 4.8 min, a Tmax ([4]; 1 mg/kg/day, Tmax, dogs, s.c. 1 mg/kg/day, day 1, sexes combined, table: average (range), text b115: median) of 10 min and an AUC(0-t) [4, 8] of 358 ± 95.1 ng·h/mL. The AUC(0-t) [4, 9] was 365 ± 42.6 ng·h/mL, the Cmax [4, 10] was 496 ± 115 ng/mL and the Cmax [4, 11] was 444 ± 101 ng/mL. It also gave a half-life ([4]; 5 mg/kg/day, dogs, s.c. 5 mg/kg/day, day 1, sexes combined) of 30 ± 7.8 min and a half-life ([4]; 5 mg/kg/day, dogs, s.c. 5 mg/kg/day, day 28, sexes combined) of 34.8 ± 12.6 min.
